Assay results: patent US20100120700A1, “METHODS AND COMPOSITIONS FOR TREATING CERVICAL CANCER” (priority 2000, published 2010)
“And” between values parts separate entries of the source, which are not always exact repeats. Equal entries are not always repeated.

What was measured:
Assay in all cases: G assay PDZ-PL binding
FLJ12615 domain 1 = biological target: T1, FLJ12615 domain 1 (Homo sapiens, UniProt Q8N3R9); conditions: peptide 10 uM, protein 5
T1 construct: made in house; host or cells: E. coli (DH5alpha, BL21 or JM109)
Protocol: (§1) (1) A PDZ-domain polypeptide is bound to a surface, e.g. a protein binding surface. In a preferred embodiment, a GST/PDZ fusion protein containing one or more PDZ domains is bound to a polystyrene 96-well plate. […] In one embodiment, the GST/PDZ fusion protein is bound via an anti-GST antibody that is coated onto the 96-well plate. Adequate binding to the plate can be achieved when: • a. 100 uL per well of 5 ug/mL goat anti-GST polyclonal antibody (Pierce) in PBS is added to a polystyrene 96-well plate (e.g., Num Polysorb) at 4° C. for 12 hours. • b. The plate is blocked by addition of 200 uL per well of PBS/BSA for 2 hours at 4° C. • c. The plate is washed 3 times with PBS. • d. 50 uL per well of 5 ug/mL GST/PDZ fusion protein) or, as a negative control, GST polypeptide alone (i.e. not a fusion protein) in PBS/BSA is added to the plate for 2 hours at 4° C. • e. The plate is again washed 3 times with PBS. […]
(§2) (3) The binding of the biotinylated peptide to the GST/PDZ fusion protein surface can be detected using a variety of methods and detectors known to one of skill in the art. In one embodiment, 100 uL per well of 0.5 ug/mL streptavidin-horse radish peroxidase (HRP) conjugate dissolved in BSA/PBS is added and allowed to react for 20 minutes at 4° C. The plate is then washed 5 times with 50 mM Tris pH 8.0 containing 0.2% Tween 20, and developed by addition of 100 uL per well of HRP-substrate solution (TMB, Dako) for 20 minutes at room temperature (RT). The reaction of the HRP and its substrate is terminated by addition of 100 uL per well of 1M sulfuric acid, and the absorbance of each well of the plate is read at 450 nm.
(§3) (4) Specific binding of a PL peptide and a PDZ domain polypeptide is determined by comparing the signal from the well(s) in which the PL peptide and PDZ domain polypeptide are combined, with the background signal(s). The background signal is the signal found in the negative control(s). Typically a specific or selective reaction will be at least twice background signal, more typically more than 5 times background, and most typically 10 or more times the background signal. In addition, a statistically significant reaction will involve multiple measurements of the reaction with the signal and the background differing by at least two standard errors, more typically four standard errors, and most typically six or more standard errors. Correspondingly, a statistical test (e.g. a T-test) comparing repeated measurements of the signal with-repeated measurements of the background will result in a p-value<0.05, more typically a p-value<0.01, and most typically a p-value<0.001 or less. As noted, in an embodiment of the “G” assay, the signal from binding of a given PL peptide to immobilized (surface bound) GST polypeptide alone is one suitable negative control (sometimes referred to as “B 1”). Because all measurement are done in multiples (i.e. at least duplicate) the arithmetic mean (or, equivalently, average.) of several measurements is used in determining the binding, and the standard error of the mean is used in determining the probable error in the measurement of the binding. The standard error of the mean of N measurements equals the square root of the following: the sum of the squares of the difference between each measurement and the mean, divided by the product of (N) and (N−1). Thus, in one embodiment, specific binding of the PDZ protein to the platebound peptide is determined by comparing the mean signal (“mean S”) and standard error of the signal (“SE”) for a particular PL-PDZ combination with the mean B1.
(§4) For convenience, the assay conditions described in this section are referred to as the “G’ assay” and the “G” assay,” with the specific conditions described in the preceding section on G assays being referred to as the “G° assay.” The “G′ assay” is identical to the “G° assay” except at step (2) the peptide concentration is 10 uM instead of 20 uM. […]

LIM Mystique domain 1 = biological target: T2, LIM Mystique domain 1 (Homo sapiens, UniProt Q96JY6); conditions: peptide 10 uM, protein 5
T2 construct: made in house; host or cells: E. coli (DH5alpha, BL21 or JM109), vector pGEX-3X
Protocol: as §1, §2, §3, §4

TAX IP 2 domain 1 = biological target: T3, TAX IP 2 domain 1 (Homo sapiens, UniProt O14908); conditions: peptide 10 uM, protein 5
T3 construct: made in house; host or cells: E. coli (DH5alpha, BL21 or JM109)
Protocol: as §1, §2, §3, §4

DLG1 domain 1 = biological target: T4, DLG1 domain 1 (Homo sapiens, UniProt Q12959, R278Q); conditions: vs GST only well, peptide 10 uM, protein 5
T4 construct: made in house; host or cells: E. coli (DH5alpha, BL21 or JM109)
Protocol: as §1, §2, §3, §4

MINT1 domain 2 = biological target: T5, MINT1 domain 2 (Homo sapiens, UniProt Q02410); conditions: peptide 10 uM, protein 5
T5 construct: made in house; host or cells: E. coli (DH5alpha, BL21 or JM109), vector pGEX-3X
Protocol: as §1, §2, §3, §4

KIAA0973 #148.5 domain 1 = biological target: T6, KIAA0973 #148.5 domain 1 (Homo sapiens, UniProt Q9Y2H9); conditions: peptide 10 uM, protein 5
T6 construct: made in house; host or cells: E. coli (DH5alpha, BL21 or JM109)
Protocol: as §1, §2, §3, §4

HTRA 3 domain 1 = biological target: T7, HTRA 3 domain 1 (Homo sapiens, UniProt P83110); conditions: peptide 10 uM, protein 5
T7 construct: made in house; host or cells: E. coli (DH5alpha or BL-21)
Protocol: as §1, §2, §3, §4

KIAA0147 domain 2 = biological target: T8, KIAA0147 domain 2 (Homo sapiens, UniProt Q14160); conditions: peptide 10 uM, protein 5
T8 construct: made in house; host or cells: E. coli (DH5alpha or BL-21)
Protocol: as §1, §2, §3, §4

X-11 beta domain 1 = biological target: T9, X-11 beta domain 1 (Homo sapiens, UniProt Q99767); conditions: peptide 10 uM, protein 5
T9 construct: made in house; host or cells: E. coli (DH5alpha, BL21 or JM109)
Protocol: as §1, §2, §3, §4

CASK domain 1 = biological target: T10, CASK domain 1 (Homo sapiens, UniProt O14936); conditions: peptide 10 uM, protein 5
T10 construct: made in house; host or cells: E. coli (DH5alpha or BL-21)
Protocol: as §1, §2, §3, §4

KIAA0545 domain 1 = biological target: T11, KIAA0545 domain 1 (Homo sapiens, UniProt O60292); conditions: peptide 10 uM, protein 5
T11 construct: made in house; host or cells: E. coli (DH5alpha or BL-21)
Protocol: as §1, §2, §3, §4

NSP #42.5 domain 1 = biological target: T12, NSP #42.5 domain 1 (Homo sapiens, UniProt Q92743); conditions: peptide 10 uM, protein 5
T12 construct: made in house; host or cells: E. coli (DH5alpha or BL-21)
Protocol: as §1, §2, §3, §4

ZO-1 domain 1 = biological target: T13, ZO-1 domain 1 (Homo sapiens, UniProt Q07157); conditions: peptide 10 uM, protein 5
T13 construct: made in house; host or cells: E. coli (DH5alpha, BL21 or JM109)
Protocol: as §1, §2, §3, §4

TIP1 domain 1 = biological target: T14, TIP1 domain 1 (Homo sapiens, UniProt O14907); conditions: vs GST only well, peptide 10 uM, protein 5
T14 construct: made in house; host or cells: E. coli (DH5alpha, BL21 or JM109)
Protocol: as §1, §2, §3, §4

T6 sequence (Q9Y2H9 963-1055): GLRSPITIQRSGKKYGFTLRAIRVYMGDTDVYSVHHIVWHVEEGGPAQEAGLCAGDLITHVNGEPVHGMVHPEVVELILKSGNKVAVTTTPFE
T5 sequence (Q02410 with tags, fused parts or gaps): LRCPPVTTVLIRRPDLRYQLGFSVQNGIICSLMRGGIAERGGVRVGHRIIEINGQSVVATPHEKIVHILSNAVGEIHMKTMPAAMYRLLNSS
T13 sequence (Q07157 with tags, fused parts or gaps): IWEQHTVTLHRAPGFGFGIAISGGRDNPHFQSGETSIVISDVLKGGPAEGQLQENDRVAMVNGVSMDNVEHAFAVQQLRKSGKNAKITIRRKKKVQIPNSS
T3 sequence (O14908 131-216): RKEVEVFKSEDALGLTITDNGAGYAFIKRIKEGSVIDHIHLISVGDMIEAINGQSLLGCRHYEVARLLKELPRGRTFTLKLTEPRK
T2 sequence (Q96JY6 1-91): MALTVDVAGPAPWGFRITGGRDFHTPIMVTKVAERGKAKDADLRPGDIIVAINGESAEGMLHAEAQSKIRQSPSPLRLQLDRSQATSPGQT
T12 sequence (Q92743 359-473): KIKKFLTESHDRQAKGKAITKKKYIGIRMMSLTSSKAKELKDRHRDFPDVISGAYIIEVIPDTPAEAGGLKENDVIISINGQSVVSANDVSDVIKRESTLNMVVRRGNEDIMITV
T14 sequence (O14907 14-116): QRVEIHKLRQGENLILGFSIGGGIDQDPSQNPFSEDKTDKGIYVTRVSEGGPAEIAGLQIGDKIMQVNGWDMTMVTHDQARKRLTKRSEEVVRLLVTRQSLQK
T7 sequence (P83110 with tags, fused parts or gaps): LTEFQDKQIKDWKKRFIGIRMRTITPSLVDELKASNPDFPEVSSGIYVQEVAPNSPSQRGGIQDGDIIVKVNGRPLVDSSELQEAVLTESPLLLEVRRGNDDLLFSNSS
T9 sequence (Q99767 with tags, fused parts or gaps): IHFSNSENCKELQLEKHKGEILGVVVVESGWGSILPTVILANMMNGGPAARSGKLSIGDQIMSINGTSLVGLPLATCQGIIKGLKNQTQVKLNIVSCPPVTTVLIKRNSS
T11 sequence (O60292 955-1050): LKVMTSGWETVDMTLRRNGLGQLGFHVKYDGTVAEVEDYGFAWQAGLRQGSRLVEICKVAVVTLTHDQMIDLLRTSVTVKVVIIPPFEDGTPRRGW
T8 sequence (Q14160 856-952): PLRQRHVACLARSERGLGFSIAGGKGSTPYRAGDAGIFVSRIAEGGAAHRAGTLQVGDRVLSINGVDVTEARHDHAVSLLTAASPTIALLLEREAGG
T1 sequence (Q8N3R9 247-343): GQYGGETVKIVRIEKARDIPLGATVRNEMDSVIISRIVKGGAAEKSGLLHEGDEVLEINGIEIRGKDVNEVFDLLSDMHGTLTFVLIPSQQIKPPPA
T10 sequence (O14936 486-575): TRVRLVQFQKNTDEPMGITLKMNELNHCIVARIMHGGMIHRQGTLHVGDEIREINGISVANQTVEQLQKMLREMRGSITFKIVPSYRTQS

## 20 mer peptide corresponding to the C-terminus of HPV16 E6 (PDZ ligand), biotinylated in binding assays; ends SSRTRRETQL (SEQ ID NO: 13) [HPV E6 #16]
FLJ12615 domain 1; A450 nm
  Ave OD: 0.4605
FLJ12615 domain 1; vs GST only well
  OD S/N: 2.24
LIM Mystique domain 1; A450 nm
  Ave OD: 0.5955
LIM Mystique domain 1; vs GST only well
  OD S/N: 2.84
TAX IP 2 domain 1; A450 nm
  Ave OD: 0.5085 and 0.478
TAX IP 2 domain 1; vs GST only well
  OD S/N: 2.37 and 2.48
DLG1 domain 1
  OD S/N: 2.98 and 4.18
MINT1 domain 2; A450 nm
  Ave OD: 0.5925
MINT1 domain 2; vs GST only well
  OD S/N: 2.76 and 2.24
KIAA0973 #148.5 domain 1; A450 nm
  Ave OD: 0.378 and 0.4985
KIAA0973 #148.5 domain 1; vs GST only well
  OD S/N: 1.68 and 2.71
HTRA 3 domain 1; A450 nm
  Ave OD: 0.4135
HTRA 3 domain 1; vs GST only well
  OD S/N: 1.34
KIAA0147 domain 2; A450 nm
  Ave OD: 0.3745
KIAA0147 domain 2; vs GST only well
  OD S/N: 2.46
X-11 beta domain 1; A450 nm
  Ave OD: 0.352
X-11 beta domain 1; vs GST only well
  OD S/N: 2.02
CASK domain 1; A450 nm
  Ave OD: 0.36
CASK domain 1; vs GST only well
  OD S/N: 1.15
KIAA0545 domain 1; A450 nm
  Ave OD: 0.4395
KIAA0545 domain 1; vs GST only well
  OD S/N: 3.96
NSP #42.5 domain 1; A450 nm
  Ave OD: 0.4165
NSP #42.5 domain 1; vs GST only well
  OD S/N: 1.95
ZO-1 domain 1; A450 nm
  Ave OD: 0.4125 and 0.5215
ZO-1 domain 1; vs GST only well
  OD S/N: 1.83 and 2.83
TIP1 domain 1
  OD S/N: 8.24 and 5.67
